Measurements published in patent publication US10000452B1, “Quinolone-based compounds, formulations, and uses thereof” (University of South Florida, priority 2016, dated 2018).
Where two headings read alike, the source gives them in different places.

Key:
[1] = tested on: malarial strain W2 (pyrimethamine and chloroquine-resistant); experiment: in vitro antimalarial activity against multidrug resistant strain W2; assay type: cell-based, P. falciparum; settings: for EC50: Plasmodium falciparum, read-out: EC50 W2 (nM); for EC50 W2 (nM): blood stage in vitro, strain W2
[2] = aqueous solubility (LC/MS- or HPLC-based assay); assay type: physicochemical; settings: aqueous solution (buffer not named), aqueous buffer, Example 2, at any given pH; read-out: solubility
Excerpt: Furthermore, to profile the properties of the piperazinyl-4(1H)-quinolones, and to identify potential limitations, aqueous solubility and lipophilicity log D were experimentally determined via LC/MS-based assays as described by the Manetsch laboratory previously^8,10,31,32 (Tables 9-12). Encouragingly, the piperazinyl-4(1H)-quinolones were much more soluble than the previously described phenoxyethoxy-4(1H)-quinolone analogues.^19 As expected, the solubility of all compounds was affected by pH, with better solubility under more acidic conditions.
In parallel to testing the compounds for in vitro antimalarial activity, a limited structure-property relationship (SPR) study focusing on log D and aqueous solubility was conducted to assess potential physiochemical liabilities (FIG. 22). […] For these reasons, physicochemical properties were not strongly considered as selection criteria for in vivo efficacy studies.

[3] = tested on: malarial strain TM90-C2B (mefloquine, chloroquine, atovaquone, and pyrimethamine-resistant); experiment: microbe, parasite or virus in culture; assay type: cell-based, P. falciparum; settings: for EC50: Plasmodium falciparum, TM90, read-out: EC50 TM90-C2B (nM); for RI: RI = EC50 TM90-C2B/EC50 W2; for EC50 TM90-C2B (nM): blood stage in vitro, atovaquone-resistant strain TM90-C2B
Excerpt: Ideally, the RI of a compound should lie between 0.3 and 3.0 in order to avoid rapidly inducing resistance in the parasite. […]

J774 mammalian cells = experiment: cytotoxicity to J774 cells; assay type: cell-based; settings: Mus musculus
Protocol: This allowed a simplified method for comparing the different assays being simultaneously run. Additionally, each compound was also tested for cytotoxicity using mammalian J774 cell lines in a 96-well plate format.^12-14, 16

[4] = tested on: P. berghei sporozoites expressing luciferase; experiment: in vitro liver stage activity, luciferase sporozoites infecting HEPG2 hepatoma cells; assay type: cell-based; settings: HEPG2 cells; for EC50: Plasmodium berghei
Pb-infected mice = experiment: in vivo efficacy scouting assay against blood stages; design: species or system P. berghei; mice; settings: Example 2: two mice, single 50 mg/kg oral dose in PEG400 on day 1 PE
Protocol: The screening involved a single oral 50 mg/kg dose 1 day post infection (PI) and an assessment of parasitemia on days 3 PI and 6 PI (Table 6).
The screening was performed by treating two infected mice with a single 50 mg/kg oral dose of test compound suspended in PEG400 on day 1 postexposure (PE) followed by assessing parasitemia on days 3 and 6 PE.

Molecule	EC50 [1]	EC50 [3]	EC50 W2 (nM) [1]	other results
CCCCc1cc2c(=O)c(C(C)=O)c[nH]c2cc1OCCOc1ccccc1 [Compound 6ag, 3-Acetyl-6-butyl-7-(2-phenoxyethoxy)quinolin-4(1H)-one]	9.67 nM			
CCCCc1cc2c(=O)c(C(=O)NCCO)c[nH]c2cc1OCCOc1ccccc1 [Compound 13d, 6-Butyl-N-(2-hydroxyethyl)-4-oxo-7-(2-phenoxyethoxy)-1,4-dihydroquinoline-3-carboxamide]				solubility [2]: > 20 µM
CCCCc1cc2c(=O)c(Br)c[nH]c2cc1OCCOc1ccccc1 [Compound 16d, 3-Bromo-6-butyl-7-(2-phenoxyethoxy)quinolin-4(1H)-one]	4.64 nM	48.7 nM		
CCN(CC)CCCC(C)Nc1ccnc2cc(Cl)ccc12 (stereo not shown) [CQ, Chloroquine, reference compound]				EC50 (J774 mammalian cells; J774, cytotoxicity, 96 well plate format, read-out: EC50 J774): 47.2 µM
COC(=O)c1c[nH]c2ccc(OCCc3ccccc3)cc2c1=O [Compound 6f, Methyl 4-Oxo-6-phenethoxy-1,4-dihydroquinoline-3-carboxylate]			double-digit nM	
Cc1[nH]c2cc(CN3CCN(c4ccc(C(F)(F)F)cc4)CC3)ccc2c(=O)c1Br [Compound 8aq, 3-Bromo-2-methyl-7-((4-(4-(trifluoromethyl)phenyl)piperazin-1-yl)methyl)quinolin-4(1H)-one]	121 nM	95.4 nM		RI [3]: 0.79; EC50 (J774 mammalian cells; J774, read-out: EC50 J774 (μM)): > 20 µM
COc1cc2c(=O)c(Br)c(C)[nH]c2cc1CN1CCN(c2ccc(C(F)(F)F)cc2)CC1 [Compound 8at, 3-Bromo-6-methoxy-2-methyl-7-((4-(4-(trifluoromethyl)phenyl)piperazin-1-yl)methyl)quinolin-4(1H)-one]	128 nM	> 5000 nM		RI [3]: >39.1; EC50 (J774 mammalian cells; J774, read-out: EC50 J774 (μM)): > 20 µM
CCCCc1cc2c(=O)c(I)c[nH]c2cc1OCCOc1ccccc1 [Compound 16b, 6-Butyl-3-iodo-7-(2-phenoxyethoxy)quinolin-4(1H)-one]	1.23 nM	6.04 nM		RI [3]: 4.91
COC(=O)c1c[nH]c2cc(F)ccc2c1=O [Compound 6n, Methyl 7-Fluoro-4-oxo-1,4-dihydroquinoline-3-carboxylate]	26.2 nM	395 nM		
CCCCc1cc2c(=O)c(C(=O)O)c[nH]c2cc1OCCOc1ccccc1 [Compound 7b, 6-Butyl-4-oxo-7-(2-phenoxyethoxy)-1,4-dihydroquinoline-3-carboxylic Acid]	64 nM	1110 nM		EC50 [4]: 0.267 nM
COC(=O)c1c[nH]c2ccccc2c1=O [Compound 6d, Methyl 4-Oxo-1,4-dihydroquinoline-3-carboxylate]			retained respectable potency	EC50 TM90-C2B (nM) [3]: devoid of any activity
COC(=O)c1c[nH]c2cc(Cl)ccc2c1=O [Compound 6l, Methyl 7-Chloro-4-oxo-1,4-dihydroquinoline-3-carboxylate]			devoid of antimalarial activity	
COC(=O)c1c[nH]c2ccc(OCc3ccccc3)cc2c1=O [Compound 6e, Methyl 6-(Benzyloxy)-4-oxo-1,4-dihydroquinoline-3-carboxylate]	11.6 nM	1100 nM		EC50 [4]: 127 nM
Cc1[nH]c2cc(CN3CCN(c4ccc(C(F)(F)F)cc4)CC3)ccc2c(=O)c1Cl [Compound 8ar, 3-Chloro-2-methyl-7-((4-(4-(trifluoromethyl)phenyl)piperazin-1-yl)methyl)quinolin-4(1H)-one]	139 nM	1510 nM		RI [3]: 10.9; EC50 (J774 mammalian cells; J774, read-out: EC50 J774 (μM)): > 20 µM
Methyl 4-oxo-7-(4-phenylpiperazin-1-yl)-1,4-dihydroquinoline-3-carboxylate [Compound 8a]			inhibition against W2 was lost	RI [3]: ~1
COC(=O)c1c[nH]c2cc(-c3ccccc3)ccc2c1=O [Compound 6m, Methyl 4-Oxo-7-phenyl-1,4-dihydroquinoline-3-carboxylate]			devoid of antimalarial activity	
C[C@H]1[C@@H](O)O[C@@H]2O[C@@]3(C)CC[C@H]4[C@H](C)CC[C@@H]1[C@@]24OO3 [DHA, dihydroartemisinin, reference compound]				EC50 (J774 mammalian cells; J774, read-out: EC50 J774 (μM)): 1.53 µM
COC(=O)c1c[nH]c2ccc(-c3ccccc3)cc2c1=O [Compound 6u, Methyl 4-Oxo-6-phenyl-1,4-dihydroquinoline-3-carboxylate]			devoid of activity	
COC(=O)c1c[nH]c2cc(OCCOc3ccccc3)c(OC)cc2c1=O [Compound 6aa, Methyl 6-Methoxy-4-oxo-7-(2-phenoxyethoxy)-1,4-dihydroquinoline-3-carboxylate]				RI [3]: 1.60
CCCCc1cc2c(=O)c(C(=O)NC(C)C)c[nH]c2cc1OCCOc1ccccc1 [Compound 13e, 6-Butyl-N-isopropyl-4-oxo-7-(2-phenoxyethoxy)-1,4-dihydroquinoline-3-carboxamide]			completely inactive	
COC(=O)c1c[nH]c2cc(OCCOc3ccccc3)ccc2c1=O [Compound 6a, Methyl 4-Oxo-7-(2-phenoxyethoxy)-1,4-dihydroquinoline-3-carboxylate]	2.8 nM			RI [3]: 26.3; EC50 Pb (nM) [4]: subnanomolar; EC50 [4]: 0.286 nM
COC(=O)c1c[nH]c2cc(OCCOc3ccccc3)c(Cl)cc2c1=O [Compound 6ab, Methyl 6-Chloro-4-oxo-7-(2-phenoxyethoxy)-1,4-dihydroquinoline-3-carboxylate]	9.93 nM	617 nM		EC50 [4]: 0.063 nM
CCCCc1cc2c(=O)c(Cl)c(C)[nH]c2cc1OCCOc1ccccc1 [Compound 16e, 6-Butyl-3-chloro-2-methyl-7-(2-phenoxyethoxy)quinolin-4(1H)-one]	6.92 nM	67.7 nM		RI [3]: 9.79
CCCCc1cc2c(=O)c(C(=O)OCC)c[nH]c2cc1OCCOc1ccccc1 [Compound 6af, Ethyl 6-Butyl-4-oxo-7-(2-phenoxyethoxy)-1,4-dihydroquinoline-3-carboxylate]	0.143 nM			EC50 Pb (nM) [4]: subnanomolar
CCCCc1cc2c(=O)c(C#N)c[nH]c2cc1OCCOc1ccccc1 [Compound 6ad, 6-Butyl-4-oxo-7-(2-phenoxyethoxy)-1,4-dihydroquinoline-3-carbonitrile]			high double-digit nM range	
COC(=O)c1c[nH]c2cc(OCCOc3ccccc3)c(C)cc2c1=O [Compound 6ac, Methyl 6-Methyl-4-oxo-7-(2-phenoxyethoxy)-1,4-dihydroquinoline-3-carboxylate]	2.01 nM	499 nM		EC50 [4]: 152 nM
CCCCc1cc2c(=O)c(C(=O)NC)c[nH]c2cc1OCCOc1ccccc1 [Compound 13a, 6-Butyl-N-methyl-4-oxo-7-(2-phenoxyethoxy)-1,4-dihydroquinoline-3-carboxamide]	13.3 nM	3980 nM		
COC(=O)c1c[nH]c2ccc(OCCCc3ccccc3)cc2c1=O [Compound 6g, Methyl 4-Oxo-6-(3-phenylpropoxy)-1,4-dihydroquinoline-3-carboxylate]			double-digit nM	% inhibition on day 6 PE (Pb-infected mice): lack of significant parasitemia reduction
Methyl 6-methyl-4-oxo-7-(4-phenylpiperazin-1-yl)-1,4-dihydroquinoline-3-carboxylate [Compound 8c]			retained respectable potency	EC50 TM90-C2B (nM) [3]: devoid of any activity
